Results published in ChEMBL document CHEMBL3407452, “Linear and branched alkyl-esters and amides of gallic acid and other (mono-, di- and tri-) hydroxy benzoyl derivatives as promising anti-HCV inhibitors” (Eur J Med Chem, 2015).
Activity calls are given as the source filed them. The calls are words filed in the database; no cut-off is given here.

Columns and labels:
[1] = tested on: Human immunodeficiency virus 1; assay: Antiviral activity against HIV1 3B infected in human CEM cells assessed as reduction in virus-induced cytopathicity after 4 to 5 days by microscopy based syncytium cell formation assay; assay type: functional, organism-based, CCRF-CEM
[2] = tested on: Human immunodeficiency virus 2; assay: Antiviral activity against HIV2 ROD infected in human CEM cells assessed as reduction in virus-induced cytopathicity after 4 to 5 days by microscopy based syncytium cell formation assay; assay type: functional, organism-based, ISOLATE ROD, CCRF-CEM; conditions: ccrf-cem
[3] = tested on: Hepatitis C virus; assay: Antiviral activity against HCV genotype 1b I389luc-ubi-neo/NS3-3'/5.1 replicons infected in human Huh5-2 HCV subgenomic replicon-containing cells assessed as reduction in virus replication after 3 days by luciferase reporter gene assay; assay type: functional, Hepacivirus hominis; conditions: for EC90: Hepacivirus hominis
[4] = Cytotoxicity against human CEM cells assessed as inhibition of cell proliferation; assay type: cell-based; conditions: CEM cells (CCRF-CEM)
[5] = tested on: Vaccinia virus; assay: Antiviral activity against vaccinia virus; assay type: functional, organism-based; conditions: Orthopoxvirus vaccinia
[6] = tested on: Vesicular stomatitis virus; assay: Antiviral activity against vesicular stomatitis virus; assay type: functional, organism-based
[7] = tested on: Coxsackievirus B4; assay: Antiviral activity against human coxsackievirus B4; assay type: functional, organism-based
[8] = tested on: Respiratory syncytial virus; assay: Antiviral activity against RSV; assay type: functional, organism-based
[9] = tested on: Human respirovirus 3; assay: Antiviral activity against human parainfluenza virus 3; assay type: functional, organism-based
[10] = tested on: Reovirus sp.; assay: Antiviral activity against reovirus; assay type: functional, organism-based
[11] = tested on: Sindbis virus; assay: Antiviral activity against sindbis virus; assay type: functional, organism-based
[12] = tested on: Influenza A virus H3N2; assay: Antiviral activity against influenza A virus H3N2; assay type: functional, organism-based
[13] = tested on: Influenza A virus; assay: Antiviral activity against influenza A virus (H1N1); assay type: functional, organism-based
[14] = tested on: Punta Toro virus; assay: Antiviral activity against punta toro virus; assay type: functional, organism-based
[15] = tested on: Feline coronavirus; assay: Antiviral activity against feline coronavirus; assay type: functional, organism-based
[16] = tested on: Felid alphaherpesvirus 1; assay: Antiviral activity against feline herpesvirus; assay type: functional, organism-based
[17] = tested on: Chikungunya virus; assay: Antiviral activity against chikungunya virus; assay type: functional
[18] = Human immunodeficiency virus 1, 3B, CCRF-CEM, read-out: EC50

O=C(NCCCCCCCCCCCCNC(=O)c1ccccc1OCc1ccccc1)c1ccccc1OCc1ccccc1
EC50 ([1]; ccrf-cem): Not Active
EC50 [2]: Not Active
EC50 [3]: Not Active
EC90 [3]: inactive

CN[C@@H]1[C@H](O[C@@H]2OC[C@@H](O)[C@H](O)[C@H]2O)[C@@H](O)[C@H](O[C@H]2c3cc(C)c(C(=O)N[C@H](C)C(=O)O)c(O)c3-c3c(cc4c(c3O)C(=O)c3cc(OC)cc(O)c3C4=O)[C@@H]2O)O[C@@H]1C [PRADIMICIN A]
EC50 [1, 18]: 3.3 µM
CC50 [4]: > 100 µM

COc1cccc(C(=O)NCCCCCCCCCCCCNC(=O)c2cccc(OC)c2OC)c1OC
EC50 ([1]; ccrf-cem): Not Active
EC50 [2]: Not Active
EC50 [3]: Not Active
EC90 [3]: inactive

COc1cc(C(=O)NCCN(CCNC(=O)c2cc(OC)c(OC)c(OC)c2)CCNC(=O)c2cc(OC)c(OC)c(OC)c2)cc(OC)c1OC
EC50 ([1]; ccrf-cem): Not Active
EC50 [2]: Not Active
EC50 [3]: Not Active
EC90 [3]: inactive

O=C(NCCCCCCCCNC(=O)c1ccc(OCc2ccccc2)c(OCc2ccccc2)c1OCc1ccccc1)c1ccc(OCc2ccccc2)c(OCc2ccccc2)c1OCc1ccccc1
EC50 ([1]; ccrf-cem): Not Active
EC50 [2]: Not Active
EC50 [3]: Not Active
EC90 [3]: inactive

O=C(NCCCCN(CCCNC(=O)c1ccc(OCc2ccccc2)c(OCc2ccccc2)c1OCc1ccccc1)C(=O)c1ccc(OCc2ccccc2)c(OCc2ccccc2)c1OCc1ccccc1)c1ccc(OCc2ccccc2)c(OCc2ccccc2)c1OCc1ccccc1
EC50 ([1]; ccrf-cem): Not Active
EC50 [2]: Not Active
EC50 [3]: Not Active
EC90 [3]: inactive

O=C(NCCCCCCNC(=O)c1ccc(OCc2ccccc2)c(OCc2ccccc2)c1OCc1ccccc1)c1ccc(OCc2ccccc2)c(OCc2ccccc2)c1OCc1ccccc1
EC50 ([1]; ccrf-cem): Not Active
EC50 [2]: Not Active
EC50 [3]: Not Active
EC90 [3]: inactive

COc1cc(C(=O)NCCCCCCCCCCNC(=O)c2cc(OC)c(OC)c(OC)c2)cc(OC)c1OC
EC50 ([1]; ccrf-cem): Not Active
EC50 [2]: Not Active
EC50 [3]: Not Active
EC90 [3]: inactive

C[C@H](Cn1cnc2c(N)ncnc21)OCP(=O)(O)O [TENOFOVIR ANHYDROUS]
CC50 [4]: > 100 µM

O=C(NCCNC(=O)c1ccccc1OCc1ccccc1)c1ccccc1OCc1ccccc1
EC50 ([1]; ccrf-cem): Not Active
EC50 [2]: Not Active
EC50 [3]: Not Active
EC90 [3]: inactive

COc1cccc(C(=O)NCCNC(=O)c2cccc(OC)c2OC)c1OC
EC50 ([1]; ccrf-cem): Not Active
EC50 [2]: Not Active
EC50 [3]: Not Active
EC90 [3]: inactive

O=C(NCCCCNC(=O)c1cccc(O)c1O)c1cccc(O)c1O
EC50 [1, 18]: > 2 µM
CC50 [4]: 5.2 µM
Activity [5]: inactive
Activity [6]: inactive
Activity [7]: inactive
Activity [8]: inactive
Activity [9]: inactive
Activity [10]: inactive
Activity [11]: inactive
Activity [12]: inactive
Activity [13]: inactive
Activity [14]: inactive
Activity [15]: inactive
Activity [16]: inactive
Activity [17]: inactive

COc1cc(C(=O)NCCN(CCN(CCN(CCNC(=O)c2cc(OC)c(OC)c(OC)c2)C(=O)c2cc(OC)c(OC)c(OC)c2)C(=O)c2cc(OC)c(OC)c(OC)c2)C(=O)c2cc(OC)c(OC)c(OC)c2)cc(OC)c1OC
EC50 ([1]; ccrf-cem): Not Active
EC50 [2]: Not Active
EC50 [3]: Not Active
EC90 [3]: inactive

COc1cc(C(=O)NCCCCCCCCNC(=O)c2cc(OC)c(OC)c(OC)c2)cc(OC)c1OC
EC50 ([1]; ccrf-cem): Not Active
EC50 [2]: Not Active
EC50 [3]: Not Active
EC90 [3]: inactive

COc1cc(C(=O)NCCN(CCNC(=O)c2cc(OC)c(OC)c(OC)c2)C(=O)c2cc(OC)c(OC)c(OC)c2)cc(OC)c1OC
EC50 ([1]; ccrf-cem): Not Active
EC50 [2]: Not Active
EC50 [3]: Not Active
EC90 [3]: inactive

O=C(NCCCOCCOCCOCCCNC(=O)c1ccc(OCc2ccccc2)c(OCc2ccccc2)c1OCc1ccccc1)c1ccc(OCc2ccccc2)c(OCc2ccccc2)c1OCc1ccccc1
EC50 ([1]; ccrf-cem): Not Active
EC50 [2]: Not Active
EC50 [3]: Not Active
EC90 [3]: inactive

O=C(NCCN(CCNC(=O)c1ccc(OCc2ccccc2)c(OCc2ccccc2)c1OCc1ccccc1)CCNC(=O)c1ccc(OCc2ccccc2)c(OCc2ccccc2)c1OCc1ccccc1)c1ccc(OCc2ccccc2)c(OCc2ccccc2)c1OCc1ccccc1
EC50 ([1]; ccrf-cem): Not Active
EC50 [2]: Not Active
EC50 [3]: Not Active
EC90 [3]: inactive

COc1cc(C(=O)NCCCCN(CCCNC(=O)c2cc(OC)c(OC)c(OC)c2)C(=O)c2cc(OC)c(OC)c(OC)c2)cc(OC)c1OC
EC50 ([1]; ccrf-cem): Not Active
EC50 [2]: Not Active
EC50 [3]: Not Active
EC90 [3]: inactive

O=C(NCCCCNC(=O)c1ccccc1OCc1ccccc1)c1ccccc1OCc1ccccc1
EC50 ([1]; ccrf-cem): Not Active
EC50 [2]: Not Active
EC50 [3]: Not Active
EC90 [3]: inactive

COc1cccc(C(=O)NCCCCNC(=O)c2cccc(OC)c2OC)c1OC
EC50 ([1]; ccrf-cem): Not Active
EC50 [2]: Not Active
EC50 [3]: Not Active
EC90 [3]: inactive

COc1cc(C(=O)NCCCCCCCCCCCCNC(=O)c2cc(OC)c(OC)c(OC)c2)cc(OC)c1OC
EC50 ([1]; ccrf-cem): Not Active
EC50 [2]: Not Active
EC50 [3]: Not Active
EC90 [3]: inactive

O=C(NCCCCCCCCCCNC(=O)c1ccc(OCc2ccccc2)c(OCc2ccccc2)c1OCc1ccccc1)c1ccc(OCc2ccccc2)c(OCc2ccccc2)c1OCc1ccccc1
EC50 ([1]; ccrf-cem): Not Active
EC50 [2]: Not Active
EC50 [3]: Not Active
EC90 [3]: inactive

O=C(NCCCCCCCCCCCCNC(=O)c1ccc(OCc2ccccc2)c(OCc2ccccc2)c1OCc1ccccc1)c1ccc(OCc2ccccc2)c(OCc2ccccc2)c1OCc1ccccc1
EC50 ([1]; ccrf-cem): Not Active
EC50 [2]: Not Active
EC50 [3]: Not Active
EC90 [3]: inactive

O=C(NCCCCNC(=O)c1ccc(OCc2ccccc2)c(OCc2ccccc2)c1OCc1ccccc1)c1ccc(OCc2ccccc2)c(OCc2ccccc2)c1OCc1ccccc1
EC50 ([1]; ccrf-cem): Not Active
EC50 [2]: Not Active
EC50 [3]: Not Active
EC90 [3]: inactive

COc1cc(C(=O)NCCCCCCNC(=O)c2cc(OC)c(OC)c(OC)c2)cc(OC)c1OC
EC50 ([1]; ccrf-cem): Not Active
EC50 [2]: Not Active
EC50 [3]: Not Active
EC90 [3]: inactive

COc1cc(C(=O)NCCCCNC(=O)c2cc(OC)c(OC)c(OC)c2)cc(OC)c1OC
EC50 ([1]; ccrf-cem): Not Active
EC50 [2]: Not Active
EC50 [3]: Not Active
EC90 [3]: inactive
